Measurements reported in ChEMBL document CHEMBL3045832, “3-Aryl-2-{4-[4-(2,4-dioxothiazolidin-5-ylmethyl)phenoxy]-phenyl}-acrylic acid alkyl ester: synthesis and antihyperglycemic evaluation” (2011).

Experiments:
Format in all cases: functional
Parameters in all cases: scale not given: the % may be the effect or the level left
[1] = system: Rattus norvegicus; experiment: Antihyperglycemic activity in streptozotocin-induced Rattus norvegicus Wistar (rat) diabetic model assessed as reduction in plasma glucose level at 25 umol/kg, po for 15 measured after treatment
[2] = system: Rattus norvegicus; experiment: Antihyperglycemic activity in streptozotocin-induced Rattus norvegicus Wistar (rat) diabetic model assessed as reduction in plasma glucose level at 20 umol/kg, po for 9 weeks measured on day 7
[3] = system: Rattus norvegicus; experiment: Antihyperglycemic activity in streptozotocin-induced Rattus norvegicus Wistar (rat) diabetic model assessed as reduction in plasma glucose level at 20 umol/kg, po for 9 weeks measured at 3 day
[4] = system: Rattus norvegicus; experiment: Antihyperglycemic activity in streptozotocin-induced Rattus norvegicus Wistar (rat) diabetic model assessed as reduction in plasma glucose level at 15 umol/kg, po for 9 weeks measured at 15 day
[5] = system: Rattus norvegicus; experiment: Antihyperglycemic activity in streptozotocin-induced Rattus norvegicus Wistar (rat) diabetic model assessed as reduction in plasma glucose level at 15 umol/kg, po for 9 weeks measured on day 7
[6] = system: Rattus norvegicus; experiment: Antihyperglycemic activity in streptozotocin-induced Rattus norvegicus Wistar (rat) diabetic model assessed as reduction in plasma glucose level at 15 umol/kg, po for 9 weeks measured at 10 day
[7] = system: Rattus norvegicus; experiment: Antihyperglycemic activity in streptozotocin-induced Rattus norvegicus Wistar (rat) diabetic model assessed as reduction in plasma glucose level at 15 umol/kg, po for 9 weeks measured at 3 day
[8] = system: Rattus norvegicus; experiment: Antihyperglycemic activity in streptozotocin-induced Rattus norvegicus Wistar (rat) diabetic model assessed as reduction in plasma glucose level at 25 umol/kg, po for 9 weeks measured at 15 day
[9] = system: Rattus norvegicus; experiment: Antihyperglycemic activity in streptozotocin-induced Rattus norvegicus Wistar (rat) diabetic model assessed as reduction in plasma glucose level at 30 umol/kg, po for 9 weeks measured at 15 day
[10] = system: Rattus norvegicus; experiment: Antihyperglycemic activity in streptozotocin-induced Rattus norvegicus Wistar (rat) diabetic model assessed as reduction in plasma glucose level at 30 umol/kg, po for 9 weeks measured at 10 day
[11] = system: Rattus norvegicus; experiment: Antihyperglycemic activity in streptozotocin-induced Rattus norvegicus Wistar (rat) diabetic model assessed as reduction in plasma glucose level at 30 umol/kg, po for 9 weeks measured on day 7
[12] = system: Rattus norvegicus; experiment: Antihyperglycemic activity in streptozotocin-induced Rattus norvegicus Wistar (rat) diabetic model assessed as reduction in plasma glucose level at 25 umol/kg, po for 9 weeks measured at 10 day
[13] = system: Rattus norvegicus; experiment: Antihyperglycemic activity in streptozotocin-induced Rattus norvegicus Wistar (rat) diabetic model assessed as reduction in plasma glucose level at 30 umol/kg, po for 9 weeks measured at 3 day
[14] = system: Rattus norvegicus; experiment: Antihyperglycemic activity in streptozotocin-induced Rattus norvegicus Wistar (rat) diabetic model assessed as reduction in plasma glucose level at 25 umol/kg, po for 9 weeks measured on day 7
[15] = system: Rattus norvegicus; experiment: Antihyperglycemic activity in streptozotocin-induced Rattus norvegicus Wistar (rat) diabetic model assessed as reduction in plasma glucose level at 25 umol/kg, po for 9 weeks measured at 3 day
[16] = system: Rattus norvegicus; experiment: Antihyperglycemic activity in streptozotocin-induced Rattus norvegicus Wistar (rat) diabetic model assessed as reduction in plasma glucose level at 20 umol/kg, po for 9 weeks measured at 15 day
[17] = system: Rattus norvegicus; experiment: Antihyperglycemic activity in streptozotocin-induced Rattus norvegicus Wistar (rat) diabetic model assessed as reduction in plasma glucose level at 20 umol/kg, po for 9 weeks measured at 10 day

CCCOC(=O)/C(=C/c1ccccc1)c1ccc(Oc2ccc(CC3SC(=O)NC3=O)cc2)cc1 (stereo not given)
Activity [1]: 8.6%

COC(=O)/C(=C/c1cccc(OC)c1OC)c1ccc(Oc2ccc(CC3SC(=O)NC3=O)cc2)cc1 (stereo not given)
Activity [1]: 37.05%

CCOC(=O)/C(=C/c1ccc(O)cc1)c1ccc(Oc2ccc(CC3SC(=O)NC3=O)cc2)cc1 (stereo not given)
Activity [1]: 18.16%

CCOC(=O)/C(=C/c1ccc(OC)c(OC)c1)c1ccc(Oc2ccc(CC3SC(=O)NC3=O)cc2)cc1 (stereo not given)
Activity [1]: 37.15%

CCCOC(=O)/C(=C/c1ccc(Br)cc1)c1ccc(Oc2ccc(CC3SC(=O)NC3=O)cc2)cc1 (stereo not given)
Activity [1]: 13.42%

CCCOC(=O)/C(=C/c1ccc(OC)cc1)c1ccc(Oc2ccc(CC3SC(=O)NC3=O)cc2)cc1 (stereo not given)
Activity [1]: 13%

CCCOC(=O)/C(=C/c1cccc(OC)c1OC)c1ccc(Oc2ccc(CC3SC(=O)NC3=O)cc2)cc1 (stereo not given)
Activity [2]: 14.56% | Activity [1]: 37.24% | Activity [3]: 10.91% | Activity [4]: 18.47% | Activity [5]: 11.49% | Activity [6]: 15.53% | Activity [7]: 8.38% | Activity [8]: 37.24% | Activity [9]: 35.47% | Activity [10]: 24.68% | Activity [11]: 20.87% | Activity [12]: 25.53% | Activity [13]: 19.42% | Activity [14]: 21.34% | Activity [15]: 18.06% | Activity [16]: 21.76% | Activity [17]: 17.26%

CCCOC(=O)/C(=C/c1ccc(OC)cc1OC)c1ccc(Oc2ccc(CC3SC(=O)NC3=O)cc2)cc1 (stereo not given)
Activity [1]: 45.91%

COC(=O)/C(=C/c1ccc(OC)c(OC)c1)c1ccc(Oc2ccc(CC3SC(=O)NC3=O)cc2)cc1 (stereo not given)
Activity [1]: 38.11%

CCOC(=O)/C(=C/c1ccc(OC)cc1)c1ccc(Oc2ccc(CC3SC(=O)NC3=O)cc2)cc1 (stereo not given)
Activity [1]: 14.61%

COC(=O)/C(=C/c1ccc([N+](=O)[O-])cc1)c1ccc(Oc2ccc(CC3SC(=O)NC3=O)cc2)cc1 (stereo not given)
Activity [1]: 13.26%

CCOC(=O)/C(=C/c1ccc(OC)cc1OC)c1ccc(Oc2ccc(CC3SC(=O)NC3=O)cc2)cc1 (stereo not given)
Activity [1]: 46.03%

COC(=O)/C(=C/c1ccc(OC)cc1OC)c1ccc(Oc2ccc(CC3SC(=O)NC3=O)cc2)cc1 (stereo not given)
Activity [1]: 46.13%

COC(=O)/C(=C/c1ccccc1)c1ccc(Oc2ccc(CC3SC(=O)NC3=O)cc2)cc1 (stereo not given)
Activity [1]: 10.74%

CCOC(=O)/C(=C/c1ccc(Br)cc1)c1ccc(Oc2ccc(CC3SC(=O)NC3=O)cc2)cc1 (stereo not given)
Activity [1]: 13.63%

COC(=O)/C(=C/c1ccc(Br)cc1)c1ccc(Oc2ccc(CC3SC(=O)NC3=O)cc2)cc1 (stereo not given)
Activity [1]: 15.58%

CCCOC(=O)/C(=C/c1ccc(O)cc1)c1ccc(Oc2ccc(CC3SC(=O)NC3=O)cc2)cc1 (stereo not given)
Activity [1]: 17.48%

CCOC(=O)/C(=C/c1ccc([N+](=O)[O-])cc1)c1ccc(Oc2ccc(CC3SC(=O)NC3=O)cc2)cc1 (stereo not given)
Activity [1]: 13.4%

COC(=O)/C(=C/c1ccc(O)cc1)c1ccc(Oc2ccc(CC3SC(=O)NC3=O)cc2)cc1 (stereo not given)
Activity [1]: 18.81%

CN(CCOc1ccc(CC2SC(=O)NC2=O)cc1)c1ccccn1 (stereo not given) [ROSIGLITAZONE]
Activity [1]: 56.73%

COC(=O)/C(=C/c1ccc(OC)cc1)c1ccc(Oc2ccc(CC3SC(=O)NC3=O)cc2)cc1 (stereo not given)
Activity [1]: 16.3%

CCCOC(=O)/C(=C/c1ccc([N+](=O)[O-])cc1)c1ccc(Oc2ccc(CC3SC(=O)NC3=O)cc2)cc1 (stereo not given)
Activity [1]: 12.45%

CCCOC(=O)/C(=C/c1ccc(OC)c(OC)c1)c1ccc(Oc2ccc(CC3SC(=O)NC3=O)cc2)cc1 (stereo not given)
Activity [1]: 35.85%

CCOC(=O)/C(=C/c1ccccc1)c1ccc(Oc2ccc(CC3SC(=O)NC3=O)cc2)cc1 (stereo not given)
Activity [1]: 9.8%
